Source: PubChem BioAssay (NCI)
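Five concentrations, 48 hours, 96-well plates. GI50 marks 50% less growth. TGI denotes the concentration required for complete inhibition of growth.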

What was measured:
Test in all cases: inhibition of tumour cell growth, NCI panel, 48 h
UACC-62 melanoma = system: UACC-62 melanoma
RPMI-8226 leukemia = system: RPMI-8226 leukemia
HOP-92 NSCLC = system: HOP-92 NSCLC
MALME-3M melanoma = system: MALME-3M melanoma
HL-60(TB) leukemia = system: HL-60(TB) leukemia
CCRF-CEM leukemia = system: CCRF-CEM leukemia
OVCAR-5 ovarian = system: OVCAR-5 ovarian
SF-268 CNS = system: SF-268 CNS
CAKI-1 renal = system: CAKI-1 renal
SK-MEL-28 melanoma = system: SK-MEL-28 melanoma
MOLT-4 leukemia = system: MOLT-4 leukemia
DLD-1 colon = system: DLD-1 colon
K-562 leukemia = system: K-562 leukemia
SN12C renal = system: SN12C renal
COLO 205 colon = system: COLO 205 colon
KM12 colon = system: KM12 colon
NCI-H460 lung = system: NCI-H460 lung
SF-295 CNS = system: SF-295 CNS
SNB-19 CNS = system: SNB-19 CNS
DMS 273 small cell lung = system: DMS 273 small cell lung
OVCAR-8 ovarian = system: OVCAR-8 ovarian
NCI-H522 lung = system: NCI-H522 lung
XF 498 CNS = system: XF 498 CNS
HCC-2998 colon = system: HCC-2998 colon
A498 renal = system: A498 renal
LOX IMVI melanoma = system: LOX IMVI melanoma
SW-620 colon = system: SW-620 colon
NCI-H23 lung = system: NCI-H23 lung
IGROV1 ovarian = system: IGROV1 ovarian
U251 CNS = system: U251 CNS
SK-MEL-5 melanoma = system: SK-MEL-5 melanoma
UACC-257 melanoma = system: UACC-257 melanoma
EKVX NSCLC = system: EKVX NSCLC
HOP-62 NSCLC = system: HOP-62 NSCLC
M14 melanoma = system: M14 melanoma
SF-539 CNS = system: SF-539 CNS
UO-31 renal = system: UO-31 renal
LXFL 529 NSCLC = system: LXFL 529 NSCLC
HOP-18 NSCLC = system: HOP-18 NSCLC
RXF 393 renal = system: RXF 393 renal
OVCAR-4 ovarian = system: OVCAR-4 ovarian
HCT-15 colon = system: HCT-15 colon
HT29 colon = system: HT29 colon
SK-OV-3 ovarian = system: SK-OV-3 ovarian
SNB-75 CNS = system: SNB-75 CNS
KM20L2 colon = system: KM20L2 colon
786-0 renal = system: 786-0 renal
OVCAR-3 ovarian = system: OVCAR-3 ovarian
SK-MEL-2 melanoma = system: SK-MEL-2 melanoma
TK-10 renal = system: TK-10 renal
ACHN renal = system: ACHN renal
A549 NSCLC = system: A549 NSCLC

## NC1CCCCC1N.O=NN1CCCCCC1(P(=O)([O-])[O-])P(=O)([O-])[O-].[Na+].[Pt+2]
UACC-62 melanoma
  GI50: > 100 µM
  TGI: > 100 µM
RPMI-8226 leukemia
  GI50: > 100 µM
  TGI: > 100 µM
HOP-92 NSCLC
  GI50: > 100 µM
  TGI: > 100 µM
MALME-3M melanoma
  GI50: > 100 µM
  TGI: > 100 µM
HL-60(TB) leukemia
  GI50: > 100 µM
  TGI: > 100 µM
CCRF-CEM leukemia
  GI50: > 100 µM
  TGI: > 100 µM
OVCAR-5 ovarian
  GI50: > 100 µM
  TGI: > 100 µM
SF-268 CNS
  GI50: > 100 µM
  TGI: > 100 µM
CAKI-1 renal
  GI50: > 100 µM
  TGI: > 100 µM
SK-MEL-28 melanoma
  GI50: > 100 µM
  TGI: > 100 µM
MOLT-4 leukemia
  GI50: > 100 µM
  TGI: > 100 µM
DLD-1 colon
  GI50: > 100 µM
  TGI: > 100 µM
K-562 leukemia
  GI50: > 100 µM
  TGI: > 100 µM
SN12C renal
  GI50: > 100 µM
  TGI: > 100 µM
COLO 205 colon
  GI50: > 100 µM
  TGI: > 100 µM
KM12 colon
  GI50: > 100 µM
  TGI: > 100 µM
NCI-H460 lung
  GI50: > 100 µM
  TGI: > 100 µM
SF-295 CNS
  GI50: > 100 µM
  TGI: > 100 µM
SNB-19 CNS
  GI50: > 100 µM
  TGI: > 100 µM
DMS 273 small cell lung
  GI50: > 100 µM
  TGI: > 100 µM
OVCAR-8 ovarian
  GI50: > 100 µM
  TGI: > 100 µM
NCI-H522 lung
  GI50: > 100 µM
  TGI: > 100 µM
XF 498 CNS
  GI50: > 100 µM
  TGI: > 100 µM
HCC-2998 colon
  GI50: > 100 µM
  TGI: > 100 µM
A498 renal
  GI50: > 100 µM
  TGI: > 100 µM
LOX IMVI melanoma
  GI50: > 100 µM
  TGI: > 100 µM
SW-620 colon
  GI50: > 100 µM
  TGI: > 100 µM
NCI-H23 lung
  GI50: > 100 µM
  TGI: > 100 µM
IGROV1 ovarian
  GI50: > 100 µM
  TGI: > 100 µM
U251 CNS
  GI50: > 100 µM
  TGI: > 100 µM
SK-MEL-5 melanoma
  GI50: > 100 µM
  TGI: > 100 µM
UACC-257 melanoma
  GI50: > 100 µM
  TGI: > 100 µM
EKVX NSCLC
  GI50: > 100 µM
  TGI: > 100 µM
HOP-62 NSCLC
  GI50: > 100 µM
  TGI: > 100 µM
M14 melanoma
  GI50: > 100 µM
  TGI: > 100 µM
SF-539 CNS
  GI50: > 100 µM
  TGI: > 100 µM
UO-31 renal
  GI50: > 100 µM
  TGI: > 100 µM
LXFL 529 NSCLC
  GI50: > 100 µM
  TGI: > 100 µM
HOP-18 NSCLC
  GI50: > 100 µM
  TGI: > 100 µM
RXF 393 renal
  GI50: > 100 µM
  TGI: > 100 µM
OVCAR-4 ovarian
  GI50: > 100 µM
  TGI: > 100 µM
HCT-15 colon
  GI50: > 100 µM
  TGI: > 100 µM
HT29 colon
  GI50: > 100 µM
  TGI: > 100 µM
SK-OV-3 ovarian
  GI50: > 100 µM
  TGI: > 100 µM
SNB-75 CNS
  GI50: 96.9 µM
  TGI: > 100 µM
KM20L2 colon
  GI50: > 100 µM
  TGI: > 100 µM
786-0 renal
  GI50: > 100 µM
  TGI: > 100 µM
OVCAR-3 ovarian
  GI50: > 100 µM
  TGI: > 100 µM
SK-MEL-2 melanoma
  GI50: > 100 µM
  TGI: > 100 µM
TK-10 renal
  GI50: > 100 µM
  TGI: > 100 µM
ACHN renal
  GI50: > 100 µM
  TGI: > 100 µM
A549 NSCLC
  GI50: > 100 µM
  TGI: > 100 µM
